The target of one assay is T1, HDAC6 human recombinant (Homo sapiens, UniProt Q9UBN7).
T1 construct: purchased Calbiochem 382180
T1 sequence (Q9UBN7 1-1215): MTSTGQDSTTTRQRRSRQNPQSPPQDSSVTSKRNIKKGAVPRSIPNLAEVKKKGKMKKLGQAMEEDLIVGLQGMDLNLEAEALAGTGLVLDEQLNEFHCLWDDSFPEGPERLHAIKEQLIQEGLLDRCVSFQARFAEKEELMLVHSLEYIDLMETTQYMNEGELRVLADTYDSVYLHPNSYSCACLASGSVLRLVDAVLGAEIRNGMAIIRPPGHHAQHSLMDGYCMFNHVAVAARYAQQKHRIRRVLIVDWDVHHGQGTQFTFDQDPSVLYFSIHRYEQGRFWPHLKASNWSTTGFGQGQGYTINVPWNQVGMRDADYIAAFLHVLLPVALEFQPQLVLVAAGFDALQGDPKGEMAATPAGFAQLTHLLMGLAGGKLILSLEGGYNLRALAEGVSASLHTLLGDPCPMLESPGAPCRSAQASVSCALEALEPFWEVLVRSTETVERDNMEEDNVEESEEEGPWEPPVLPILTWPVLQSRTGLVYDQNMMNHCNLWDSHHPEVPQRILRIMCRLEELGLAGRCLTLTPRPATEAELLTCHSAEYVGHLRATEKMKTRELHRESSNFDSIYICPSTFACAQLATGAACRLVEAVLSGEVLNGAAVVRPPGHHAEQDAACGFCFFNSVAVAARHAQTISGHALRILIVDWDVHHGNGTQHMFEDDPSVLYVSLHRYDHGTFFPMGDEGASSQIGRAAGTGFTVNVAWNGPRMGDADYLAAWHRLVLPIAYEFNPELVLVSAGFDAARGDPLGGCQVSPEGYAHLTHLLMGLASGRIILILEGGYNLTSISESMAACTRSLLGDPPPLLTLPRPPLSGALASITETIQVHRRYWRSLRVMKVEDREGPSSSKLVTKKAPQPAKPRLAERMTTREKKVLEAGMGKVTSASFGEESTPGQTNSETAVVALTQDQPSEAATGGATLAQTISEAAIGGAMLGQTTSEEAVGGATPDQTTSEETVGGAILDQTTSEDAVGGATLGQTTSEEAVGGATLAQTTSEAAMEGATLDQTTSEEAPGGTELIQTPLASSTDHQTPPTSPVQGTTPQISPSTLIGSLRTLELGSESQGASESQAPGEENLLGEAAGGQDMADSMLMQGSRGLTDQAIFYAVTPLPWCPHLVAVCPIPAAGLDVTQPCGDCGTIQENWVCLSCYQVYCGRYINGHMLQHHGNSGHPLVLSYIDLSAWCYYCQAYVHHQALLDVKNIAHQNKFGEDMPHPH
Briefly: HDAC enzyme activity inhibition (in vitro), HDAC6 assay. The assay is classed as biochemical. The note with it: samples at 0.1, 1, 10, 100 and 1000 nM; 37° C. 60 minutes; fluorescence Ex 390, Em 460; read-out: HDAC6 IC50. The method in brief:
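HDAC6 human recombinant enzyme with fluorimetric substrate; […]. Reaction 60 min at 37° C, then developer 30 min at 37° C; fluorescence read at Ex 390/Em 460.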

A further assay concerns the target T2, HDAC1 (Homo sapiens, UniProt Q13547).
T2 construct: purchased Enzolifesciences BML-AK511
Nature of the assay: HDAC enzyme activity inhibition (in vitro), HDAC1 Fluorimetric Drug Discovery Assay Kit. The assay is classed as biochemical. The note with it: samples at 100, 1000 and 10000 nM; 37° C. 60 minutes; fluorescence Ex 390, Em 460; read-out: HDAC1 IC50. A digest of the protocol: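 Compounds at 100, 1000, 10000 nM (HDAC1) or 0.1, 1, 10, 100, 1000 nM (HDAC6); 37° C, 60 min; developer, 37° C, 30 min; fluorescence Ex 390/Em 460.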

The structures appear in SMILES notation. Some results are limits rather than exact numbers.

This note sets out measurements from US20230092890A1, “1, 3, 4-Oxadiazole derivative compounds as histone deacetylase 6 inhibitor, and the pharmaceutical composition comprising the same” (Chong Kun Dang Pharmaceutical Corp., priority 2019, published 2023).

T2 sequence (Q13547 whole entry): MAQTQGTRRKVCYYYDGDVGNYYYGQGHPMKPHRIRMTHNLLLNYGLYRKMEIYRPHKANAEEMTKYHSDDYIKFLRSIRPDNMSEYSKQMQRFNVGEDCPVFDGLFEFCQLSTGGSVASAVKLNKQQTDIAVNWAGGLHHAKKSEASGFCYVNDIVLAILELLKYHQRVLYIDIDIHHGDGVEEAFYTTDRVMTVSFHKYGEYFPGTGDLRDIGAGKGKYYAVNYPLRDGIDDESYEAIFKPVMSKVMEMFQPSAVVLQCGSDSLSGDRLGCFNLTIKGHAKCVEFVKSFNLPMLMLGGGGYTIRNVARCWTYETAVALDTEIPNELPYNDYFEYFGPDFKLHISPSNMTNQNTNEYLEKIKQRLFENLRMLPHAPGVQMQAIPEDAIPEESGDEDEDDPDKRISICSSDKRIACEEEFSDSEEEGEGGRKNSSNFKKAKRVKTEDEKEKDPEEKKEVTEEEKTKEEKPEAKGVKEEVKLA

A word on the IC50: it is the concentration that gives 50% inhibition. For the compound `O=c1oc2cc(-c3cncc(N4CCOCC4)c3)c(F)cc2n1Cc1ccc(-c2nnc(C(F)F)o2)cn1` [Compound 348, 3-((5-(5-(difluoromethyl)-1,3,4-oxadiazole-2-yl)pyridine-2-yl)methyl)-5-fluoro-6-(5-morpholinopyridine-3-yl)benzo[d]oxazole-2(3H)-one], the IC50 at HDAC6 human recombinant is 25 nM; on HDAC1 it was over 10000 nM.
As to `CC(C)N1CCN(c2ccc(-c3cc4oc(=O)n(Cc5ccc(-c6nnc(C(F)F)o6)cn5)c4cc3F)cn2)CC1` [Compound 349, 3-((5-(5-(difluoromethyl)-1,3,4-oxadiazole-2-yl)pyridine-2-yl)methyl)-5-fluoro-6-(6-(4-isopropylpiperazine-1-yl)pyridine-3-yl)benzo[d]oxazole-2(3H)-one], the IC50 was 55 nM on HDAC6 human recombinant and over 10000 nM on HDAC1.
For the compound `O=c1oc2cc(-c3ccc(N4CCN(C5COC5)CC4)nc3)c(F)cc2n1Cc1ccc(-c2nnc(C(F)F)o2)cn1` [Compound 350, 3-((5-(5-(difluoromethyl)-1,3,4-oxadiazole-2-yl)pyridine-2-yl)methyl)-5-fluoro-6-(6-(4-(oxetan-3-yl)piperazine-1-yl)pyridine-3-yl)benzo[d]oxazole-2(3H)-one], the IC50 was 33 nM at HDAC6 human recombinant and over 10000 nM on HDAC1.
With `O=c1oc2cc(-c3ccc(N4CCN(CC(F)(F)F)CC4)nc3)c(F)cc2n1Cc1ccc(-c2nnc(C(F)F)o2)cn1` [Compound 351, 3-((5-(5-(difluoromethyl)-1,3,4-oxadiazole-2-yl)pyridine-2-yl)methyl)-5-fluoro-6-(6-(4-(2,2,2-trifluoroethyl)piperazine-1-yl)pyridine-3-yl)benzo[d]oxazole-2(3H)-one], the figures for the half-maximal inhibitory concentration (IC50) at HDAC6 human recombinant and on HDAC1 were 151 nM and over 10000 nM, respectively.
Take `CC(C)(C)OC(=O)N1CCC(n2cc(-c3ccc4c(c3)sc(=O)n4Cc3ccc(-c4nnc(C(F)F)o4)cn3)cn2)CC1` [Compound 352, tert-butyl 4-(4-(3-((5-(5-(difluoromethyl)-1,3,4-oxadiazole-2-yl)pyridine-2-yl)methyl)-2-oxo-2,3-dihydrobenzo[d]thiazole-6-yl)-1H-pyrazole-1-yl)piperidine-1-carboxylate]: the results for the IC50 on HDAC6 human recombinant and on HDAC1 were 170 nM and over 10000 nM, respectively.
On to `CN1CCC(n2cc(-c3ccc4c(c3)sc(=O)n4Cc3ccc(-c4nnc(C(F)F)o4)cn3)cn2)CC1` [Compound 353, 3-((5-(5-(difluoromethyl)-1,3,4-oxadiazole-2-yl)pyridine-2-yl)methyl)-6-(1-(1-methylpiperidine-4-yl)-1H-pyrazole-4-yl)benzo[d]thiazole-2(3H)-one], for which the IC50 at HDAC6 human recombinant was 19 nM; at HDAC1, over 10000 nM.
In the same order, the values of `CC(C)N1CCC(n2cc(-c3ccc4c(c3)sc(=O)n4Cc3ccc(-c4nnc(C(F)F)o4)cn3)cn2)CC1` [Compound 354, 3-((5-(5-(difluoromethyl)-1,3,4-oxadiazole-2-yl)pyridine-2-yl)methyl)-6-(1-(1-isopropylpiperidine-4-yl)-1H-pyrazole-4-yl)benzo[d]thiazole-2(3H)-one] are 16 nM and over 10000 nM.
On to `O=c1sc2cc(-c3cnn(C4CCN(C5COC5)CC4)c3)ccc2n1Cc1ccc(-c2nnc(C(F)F)o2)cn1` [Compound 355, 3-((5-(5-(difluoromethyl)-1,3,4-oxadiazole-2-yl)pyridine-2-yl)methyl)-6-(1-(1-(oxetan-3-yl)piperidine-4-yl)-1H-pyrazole-4-yl)benzo[d]thiazole-2(3H)-on], for which the IC50 is 23 nM on HDAC6 human recombinant and over 10000 nM on HDAC1.
With `O=c1sc2cc(-c3cnn(C4CCN(CC(F)(F)F)CC4)c3)ccc2n1Cc1ccc(-c2nnc(C(F)F)o2)cn1` [Compound 356, 3-((5-(5-(difluoromethyl)-1,3,4-oxadiazole-2-yl)pyridine-2-yl)methyl)-6-(1-(1-(2,2,2-trifluoroethyl)piperidine-4-yl)-1H-pyrazole-4-yl)benzo[d]thiazole-2(3H)-one], the results for the IC50 on HDAC6 human recombinant and at HDAC1 were 84 nM and over 10000 nM, respectively.
